How the values were obtained:
Italian ryegrass [1] = test: Test Example 4: herbicidal effect by soil treatment (Table 19, symbol K); type: in vivo, Italian ryegrass (Lolium multiflorum); conditions: amount of applied herbicide 320 g/ha
Summary of the method: (§1)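 Scoring uses the grading scale of an earlier test, three weeks post-application. Treatment consists of spraying a diluted emulsion formulation across the surface of sterilized diluvial soil in which seeds are buried near 1.5 cm deep; boxes are kept in a greenhouse between 25° C. and 30° C.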

persian speedwell [2] = test: Test Example 5: herbicidal effect by foliage application, plastic box (Table 20, symbol R); type: in vivo, Persian speedwell (Veronica persica); conditions: foliage application, AAH 320 g/ha, evaluated three weeks after application
Summary of the method: (§2)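 Post-emergence foliar test in sterilized diluvial soil. Compound applied as water-diluted emulsion at a predetermined rate to 14-day-old plants; evaluation at three weeks.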

wild oat [3] = test: Test Example 5: herbicidal effect by foliage application, plastic box (Table 20, symbol I); type: in vivo, wild oat (Avena fatua); conditions: foliage application, AAH 320 g/ha, evaluated three weeks after application
Summary of the method: as §2

wild oat [4] = test: Test Example 4: herbicidal effect by soil treatment (Table 19, symbol I); type: in vivo, wild oat (Avena fatua); conditions: amount of applied herbicide 320 g/ha
Summary of the method: as §1

persian speedwell [5] = test: Test Example 4: herbicidal effect by soil treatment (Table 19, symbol R); type: in vivo, Persian speedwell (Veronica persica); conditions: amount of applied herbicide 320 g/ha
Summary of the method: as §1

southern crabgrass [6] = test: Test Example 5: herbicidal effect by foliage application, plastic box (Table 20, symbol F); type: in vivo, southern crabgrass (Digitaria ciliaris); conditions: foliage application, AAH 320 g/ha, evaluated three weeks after application
Summary of the method: as §2

southern crabgrass [7] = test: Test Example 4: herbicidal effect by soil treatment (Table 19, symbol F); type: in vivo, southern crabgrass (Digitaria ciliaris); conditions: amount of applied herbicide 320 g/ha
Summary of the method: as §1

redroot pigweed [8] = test: Test Example 4: herbicidal effect by soil treatment (Table 19, symbol N); type: in vivo, redroot pigweed (Amaranthus retroflexus); conditions: amount of applied herbicide 320 g/ha
Summary of the method: as §1

chickweed [9] = test: Test Example 4: herbicidal effect by soil treatment (Table 19, symbol P); type: in vivo, common chickweed (Stellaria media); conditions: amount of applied herbicide 320 g/ha
Summary of the method: as §1

barnyard grass [10] = test: Test Example 4: herbicidal effect by soil treatment (Table 19, symbol H); type: in vivo, barnyard grass (Echinochloa crus-galli); conditions: amount of applied herbicide 320 g/ha
Summary of the method: as §1

Chinese sprangletop = test: Test Example 3: herbicidal effect by foliage application, Wagner pot (Table 18, symbol D); type: in vivo, chinese sprangletop (Leptochloa chinensis); conditions: amount of applied herbicide 320 g/ha
Summary of the method: (§3)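 Plants were sown in alluvial soil held under 0.1–0.5 cm standing water and grown 14 days in a greenhouse at 25–30 °C. An emulsifiable formulation, water-diluted to the set dose, was then sprayed onto the foliage, and effects were scored three weeks later using previously defined criteria.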

barnyard grass [11] = test: Test Example 3: herbicidal effect by foliage application, Wagner pot (Table 18, symbol H); type: in vivo, barnyard grass (Echinochloa crus-galli); conditions: amount of applied herbicide 320 g/ha
Summary of the method: as §3

green foxtail [12] = test: Test Example 5: herbicidal effect by foliage application, plastic box (Table 20, symbol G); type: in vivo, green foxtail (Setaria viridis); conditions: foliage application, AAH 320 g/ha, evaluated three weeks after application
Summary of the method: as §2

windgrass [13] = test: Test Example 5: herbicidal effect by foliage application, plastic box (Table 20, symbol L); type: in vivo, windgrass (Apera spica-venti); conditions: foliage application, AAH 320 g/ha, evaluated three weeks after application
Summary of the method: as §2

blackgrass [14] = test: Test Example 5: herbicidal effect by foliage application, plastic box (Table 20, symbol J); type: in vivo, blackgrass (Alopecurus myosuroides); conditions: foliage application, AAH 320 g/ha, evaluated three weeks after application
Summary of the method: as §2

blackgrass [15] = test: Test Example 4: herbicidal effect by soil treatment (Table 19, symbol J); type: in vivo, blackgrass (Alopecurus myosuroides); conditions: amount of applied herbicide 320 g/ha
Summary of the method: as §1

lambsquarters [16] = test: Test Example 5: herbicidal effect by foliage application, plastic box (Table 20, symbol O); type: in vivo, lambsquarters (Chenopodium album); conditions: foliage application, AAH 320 g/ha, evaluated three weeks after application
Summary of the method: as §2

redroot pigweed [17] = test: Test Example 5: herbicidal effect by foliage application, plastic box (Table 20, symbol N); type: in vivo, redroot pigweed (Amaranthus retroflexus); conditions: foliage application, AAH 320 g/ha, evaluated three weeks after application
Summary of the method: as §2

Italian ryegrass [18] = test: Test Example 5: herbicidal effect by foliage application, plastic box (Table 20, symbol K); type: in vivo, Italian ryegrass (Lolium multiflorum); conditions: foliage application, AAH 320 g/ha, evaluated three weeks after application
Summary of the method: as §2

windgrass [19] = test: Test Example 4: herbicidal effect by soil treatment (Table 19, symbol L); type: in vivo, windgrass (Apera spica-venti); conditions: amount of applied herbicide 320 g/ha
Summary of the method: as §1

rice flat sedge = test: Test Example 3: herbicidal effect by foliage application, Wagner pot (Table 18, symbol E); type: in vivo, rice flat sedge (Cyperus iria); conditions: amount of applied herbicide 320 g/ha
Summary of the method: as §3

lambsquarters [20] = test: Test Example 4: herbicidal effect by soil treatment (Table 19, symbol O); type: in vivo, lambsquarters (Chenopodium album); conditions: amount of applied herbicide 320 g/ha
Summary of the method: as §1

green foxtail [21] = test: Test Example 4: herbicidal effect by soil treatment (Table 19, symbol G); type: in vivo, green foxtail (Setaria viridis); conditions: amount of applied herbicide 320 g/ha
Summary of the method: as §1

velvetleaf [22] = test: Test Example 4: herbicidal effect by soil treatment (Table 19, symbol M); type: in vivo, velvetleaf (Abutilon theophrasti); conditions: amount of applied herbicide 320 g/ha
Summary of the method: as §1

chickweed [23] = test: Test Example 5: herbicidal effect by foliage application, plastic box (Table 20, symbol P); type: in vivo, common chickweed (Stellaria media); conditions: foliage application, AAH 320 g/ha, evaluated three weeks after application
Summary of the method: as §2

velvetleaf [24] = test: Test Example 5: herbicidal effect by foliage application, plastic box (Table 20, symbol M); type: in vivo, velvetleaf (Abutilon theophrasti); conditions: foliage application, AAH 320 g/ha, evaluated three weeks after application
Summary of the method: as §2

barnyard grass [25] = test: Test Example 5: herbicidal effect by foliage application, plastic box (Table 20, symbol H); type: in vivo, barnyard grass (Echinochloa crus-galli); conditions: foliage application, AAH 320 g/ha, evaluated three weeks after application
Summary of the method: as §2

CCCC(=O)Oc1c(C)nn(C)c(=O)c1-c1c(-c2ccc(F)cc2F)sc2ccc(F)cc12 [2-343]
herbicidal effect on K: Italian ryegrass (Italian ryegrass [1]): 5 (Herbicidal rate of 90% or more (almost completely withered))
R: persian speedwell, herbicidal effect (criteria 0-5) (persian speedwell [2]): 5 (Herbicidal rate of 90% or more (almost completely withered))
I: wild oat, herbicidal effect (criteria 0-5) (wild oat [3]): 3 (Herbicidal rate of 40% or more and less than 70%)
herbicidal effect on I: wild oat (wild oat [4]): 2 (Herbicidal rate of 20% or more and less than 40%)
herbicidal effect on R: persian speedwell (persian speedwell [5]): 5 (Herbicidal rate of 90% or more (almost completely withered))
F: southern crabgrass, herbicidal effect (criteria 0-5) (southern crabgrass [6]): 5 (Herbicidal rate of 90% or more (almost completely withered))
herbicidal effect on F: southern crabgrass (southern crabgrass [7]): 3 (Herbicidal rate of 40% or more and less than 70%)
herbicidal effect on N: redroot pigweed (redroot pigweed [8]): 3 (Herbicidal rate of 40% or more and less than 70%)
herbicidal effect on P: chickweed (chickweed [9]): 3 (Herbicidal rate of 40% or more and less than 70%)
herbicidal effect on H: barnyard grass (barnyard grass [10]): 3 (Herbicidal rate of 40% or more and less than 70%)
herbicidal effect on D: Chinese sprangletop (Chinese sprangletop): 5 (Herbicidal rate of 90% or more (almost completely withered))
herbicidal effect on H: barnyard grass (barnyard grass [11]): 5 (Herbicidal rate of 90% or more (almost completely withered))
G: green foxtail, herbicidal effect (criteria 0-5) (green foxtail [12]): 5 (Herbicidal rate of 90% or more (almost completely withered))
L: windgrass, herbicidal effect (criteria 0-5) (windgrass [13]): 5 (Herbicidal rate of 90% or more (almost completely withered))
J: blackgrass, herbicidal effect (criteria 0-5) (blackgrass [14]): 4 (Herbicidal rate of 70% or more and less than 90%)
herbicidal effect on J: blackgrass (blackgrass [15]): 2 (Herbicidal rate of 20% or more and less than 40%)
O: lambsquarters, herbicidal effect (criteria 0-5) (lambsquarters [16]): 4 (Herbicidal rate of 70% or more and less than 90%)
N: redroot pigweed, herbicidal effect (criteria 0-5) (redroot pigweed [17]): 5 (Herbicidal rate of 90% or more (almost completely withered))
K: Italian ryegrass, herbicidal effect (criteria 0-5) (Italian ryegrass [18]): 5 (Herbicidal rate of 90% or more (almost completely withered))
herbicidal effect on L: windgrass (windgrass [19]): 3 (Herbicidal rate of 40% or more and less than 70%)
herbicidal effect on E: rice flat sedge (rice flat sedge): 4 (Herbicidal rate of 70% or more and less than 90%)
herbicidal effect on O: lambsquarters (lambsquarters [20]): 2 (Herbicidal rate of 20% or more and less than 40%)
herbicidal effect on G: green foxtail (green foxtail [21]): 4 (Herbicidal rate of 70% or more and less than 90%)
herbicidal effect on M: velvetleaf (velvetleaf [22]): 3 (Herbicidal rate of 40% or more and less than 70%)
P: chickweed, herbicidal effect (criteria 0-5) (chickweed [23]): 5 (Herbicidal rate of 90% or more (almost completely withered))
M: velvetleaf, herbicidal effect (criteria 0-5) (velvetleaf [24]): 5 (Herbicidal rate of 90% or more (almost completely withered))
H: barnyard grass, herbicidal effect (criteria 0-5) (barnyard grass [25]): 3 (Herbicidal rate of 40% or more and less than 70%)

Reference: patent publication US20230085307A1, “PYRIDAZINONE COMPOUND AND HERBICIDE” (NISSAN CHEMICAL CORPORATION, priority 2019, published 2023)
